Test results published in patent publication US8044087B2, “Hepatitis C virus inhibitors” (priority 2008, dated 2011).

Assays:
[1] = target: T1, HCV NS3/4A protease complex (Hepatitis C virus genotype 1a, UniProt P27958, C1454S/C1711G); assay: FRET peptide assay to monitor HCV NS3/4A proteolytic activity; format: biochemical; conditions: recombinant NS3/4A protease complex, strain not stated
T1 construct: DNA encoding the recombinant HCV NS3/4A protease complex (amino acids 1027 to 1711) for these strains; inferred from the pET21b vector and Ni-NTA purification; made in house; host or cells: Escherichia coli BL21 (DE3)
Text: HCV NS3 protease complexes, derived from the BMS strain, H77 strain or J4L6S strain, were generated, as described below. These purified recombinant proteins were generated for use in a homogeneous assay (see below) to provide an indication of how effective compounds of the present disclosure would be in inhibiting HCV NS3 proteolytic activity.
Serum from an HCV-infected patient was obtained from Dr. T. Wright, San Francisco Hospital. An engineered full-length cDNA (compliment deoxyribonucleic acid) template of the HCV genome (BMS strain) was constructed from DNA fragments obtained by reverse transcription-PCR (RT-PCR) of serum RNA (ribonucleic acid) and using primers selected on the basis of homology between other genotype 1a strains. From the determination of the entire genome sequence, a genotype 1a was assigned to the HCV isolate according to the classification of Simmonds et al. (See P Simmonds, K A Rose, S Graham, S W Chan, F McOmish, B C Dow, E A Follett, P L Yap and H Marsden, J. Clin. Microbiol., 31(6), 1493-1503 (1993)). […] The infectious clones, H77 (1a genotype) and J4L6S (1b genotype) were obtained from R. Purcell (NIH) and the sequences are published in Genbank (AAB67036, see Yanagi, M., Purcell, R. H., Emerson, S. U. and Bukh, J. Proc. Natl. Acad. Sci. U.S.A. 94(16), 8738-8743 (1997); AF054247, see Yanagi, M., St Claire, M., Shapiro, M., Emerson, S. U., Purcell, R. H. and Bukh, J., Virology 244 (1), 161-172. (1998)).
The H77 and J4L6S strains were used for production of recombinant NS3/4A protease complexes. DNA encoding the recombinant HCV NS3/4A protease complex (amino acids 1027 to 1711) for these strains was manipulated as described by P. Gallinari et al. (see Gallinari P, Paolini C, Brennan D, Nardi C, Steinkuhler C, De Francesco R. Biochemistry. 38(17):5620-32, (1999)). Briefly, a three-lysine solubilizing tail was added at the 3′-end of the NS4A coding region. The cysteine in the P1 position of the NS4A-NS4B cleavage site (amino acid 1711) was changed to a glycine to avoid the proteolytic cleavage of the lysine tag. Furthermore, a cysteine to serine mutation was introduced by PCR at amino acid position 1454 to prevent the autolytic cleavage in the NS3 helicase domain. The variant DNA fragment was cloned in the pET21b bacterial expression vector (Novagen) and the NS3/4A complex was expressed in Escherichia coli strain BL21 (DE3) (Invitrogen) following the protocol described by P. Gallinari et al. (see Gallinari P, Brennan D, Nardi C, Brunetti M, Tomei L, Steinkuhler C, De Francesco R., J Viral. 72(8):6758-69 (1998)) with modifications. Briefly, the NS3/4A protease complex expression was induced with 0.5 millimolar (mM) Isopropyl β-D-1-thiogalactopyranoside (IPTG) for 22 hours (h) at 20° C. […]

[2] = test system: HCV replicon in HUH-7 cells; assay: HCV replicon FRET assay (confirmed in replicon luciferase reporter assay); format: cell-based; conditions: Hepatitis C virus, 96 h, HUH-7 cells expressing HCV 1b replicon, 4 days
Text: An HCV replicon whole cell system was established as described by Lohmann V, Korner F, Koch J, Herian U, Theilmann L, Bartenschlager R., Science 285(5424):110-3 (1999). This system enabled us to evaluate the effects of our HCV Protease compounds on HCV RNA replication. Briefly, using the HCV strain 1b sequence described in the Lohmann paper (Assession number: AJ238799), an HCV cDNA was synthesized by Operon Technologies, Inc. (Alameda, Calif.), and the full-length replicon was then assembled in plasmid pGem9zf(+) (Promega, Madison, Wis.) using standard molecular biology techniques. The replicon consists of (i) the HCV 5′ UTR fused to the first 12 amino acids of the capsid protein, (ii) the neomycin phosphotransferase gene (neo), (iii) the IRES from encephalomyocarditis virus (EMCV), and (iv) HCV NS3 to NS5B genes and the HCV 3′ UTR. Plasmid DNAs were linearized with ScaI and RNA transcripts were synthesized in vitro using the T7 MegaScript transcription kit (Ambion, Austin, Tex.) according to manufacturer's directions. In vitro transcripts of the cDNA were transfected into the human hepatoma cell line, HUH-7. […] Resulting cell lines were characterized for positive and negative strand RNA production and protein production over time.
The HCV replicon FRET assay was developed to monitor the inhibitory effects of compounds described in the disclosure on HCV viral replication. HUH-7 cells, constitutively expressing the HCV replicon, were grown in Dulbecco's Modified Eagle Media (DMEM) (Gibco-BRL) containing 10% Fetal calf serum (FCS) (Sigma) and 1 mg/ml G418 (Gibco-BRL). Cells were seeded the night before (1.5×10^4 cells/well) in 96-well tissue-culture sterile plates. Compound and no compound controls were prepared in DMEM containing 4% FCS, 1:100 Penicillin/Streptomysin (Gibco-BRL), 1:100 L-glutamine and 5% DMSO in the dilution plate (0.5% DMSO final concentration in the assay). Compound/DMSO mixes were added to the cells and incubated for 4 days at 37° C. After 4 days, cells were first assessed for cytotoxicity using alamar Blue (Trek Diagnotstic Systems) for a CC50 reading. The toxicity of compound (CC50) was determined by adding 1/10 volume of alamar Blue to the media incubating the cells. After 4 h, the fluorescence signal from each well was read, with an excitation wavelength at 530 nm and an emission wavelength of 580 nm, using the Cytofluor Series 4000 (Perspective Biosystems). Plates were then rinsed thoroughly with Phosphate-Buffered Saline (PBS) (3 times 150 μl).
As a secondary assay, EC50 determinations from the replicon FRET assay were confirmed in a replicon luciferase reporter assay. […] Following 4 days in a 37° C./5% CO2 incubator, cells were analyzed for Renilla Luciferase activity using the Promega Dual-Glo Luciferase Assay System. […]

HCV = conditions: combination therapy; cited from earlier work

T1 sequence (P27958 1027-1711 C1454S/C1711G, one chain of several): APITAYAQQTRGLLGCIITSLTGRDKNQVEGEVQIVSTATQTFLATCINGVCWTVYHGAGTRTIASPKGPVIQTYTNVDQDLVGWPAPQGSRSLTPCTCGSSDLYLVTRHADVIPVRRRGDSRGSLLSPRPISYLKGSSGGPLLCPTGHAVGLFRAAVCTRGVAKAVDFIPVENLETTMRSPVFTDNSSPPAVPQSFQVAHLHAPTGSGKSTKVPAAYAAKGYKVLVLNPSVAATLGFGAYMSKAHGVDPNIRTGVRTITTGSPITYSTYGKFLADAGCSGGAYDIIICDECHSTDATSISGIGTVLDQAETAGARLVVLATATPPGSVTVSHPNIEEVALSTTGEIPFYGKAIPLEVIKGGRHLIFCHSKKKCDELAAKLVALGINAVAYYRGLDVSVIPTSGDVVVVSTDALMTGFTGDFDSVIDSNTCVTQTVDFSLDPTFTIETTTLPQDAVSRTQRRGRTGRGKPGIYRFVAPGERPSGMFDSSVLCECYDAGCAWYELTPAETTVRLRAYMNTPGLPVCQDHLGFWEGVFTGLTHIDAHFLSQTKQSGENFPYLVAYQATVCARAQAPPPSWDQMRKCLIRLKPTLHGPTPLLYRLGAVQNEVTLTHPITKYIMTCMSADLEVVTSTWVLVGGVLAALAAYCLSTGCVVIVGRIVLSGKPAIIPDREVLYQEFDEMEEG

Compound	IC50 [1] [nM]	EC50 [2] [nM]	IC50 ([1]; class symbols) [nM]	EC50 ([2]; class symbols) [nM]	sustained efficacy, share of patients (HCV) [%]
C=C[C@@H]1C[C@]1(NC(=O)[C@@H]1C[C@@]2(c3ccc(-c4ccccc4)cc3)CN1C(=O)[C@@H](NC(=O)OC(C)(C)C)CCCCC/C=C/CS2)C(=O)NS(=O)(=O)C1CC1 [Example 1, tert-butyl (3S,13R,15S,E)-13-(biphenyl-4-yl)-15-((1R,2S)-1-(cyclopropylsulfonylcarbamoyl)-2-vinylcyclopropylcarbamoyl)-2-oxo-12-thia-1-azabicyclo[11.2.1]hexadec-9-en-3-ylcarbamate]	5	75			
C=C[C@@H]1C[C@]1(NC(=O)[C@@H]1C[C@@]2(c3ccc(-c4ccccc4)cc3)CN1C(=O)[C@@H](NC(=O)OC(C)(C)C)CCCCCC/C=C/CS2)C(=O)NS(=O)(=O)C1CC1 [Example 2, tert-butyl (3S,14R,16S,E)-14-(biphenyl-4-yl)-16-((1R,2S)-1-(cyclopropylsulfonylcarbamoyl)-2-vinylcyclopropylcarbamoyl)-2-oxo-13-thia-1-azabicyclo[12.2.1]heptadec-10-en-3-ylcarbamate]			5 to 30	501 to 1000	
C=C[C@@H]1C[C@]1(NC(=O)[C@@H]1C[C@@]2(c3ccc(-c4ccccc4)cc3)CN1C(=O)[C@@H](NC(=O)OC(C)(C)C)CCCCCCCCCS2)C(=O)NS(=O)(=O)C1CC1 [Example 3, tert-butyl (3S,14R,16S)-14-(biphenyl-4-yl)-16-((1R,2S)-1-(cyclopropylsulfonylcarbamoyl)-2-vinylcyclopropylcarbamoyl)-2-oxo-13-thia-1-azabicyclo[12.2.1]heptadecan-3-ylcarbamate]			5 to 30	501 to 1000	
C=C[C@@H]1C[C@]1(NC(=O)[C@@H]1C[C@@]2(c3ccc(-c4ccccc4)cc3)CN1C(=O)[C@@H](NC(=O)OC(C)(C)C)CCCC/C=C/CS2)C(=O)NS(=O)(=O)C1CC1 [Example 4, tert-butyl (3S,12R,14S,E)-12-(biphenyl-4-yl)-14-((1R,2S)-1-(cyclopropylsulfonylcarbamoyl)-2-vinylcyclopropylcarbamoyl)-2-oxo-11-thia-1-azabicyclo[10.2.1]pentadec-8-en-3-ylcarbamate]			31 to 100	501 to 1000	
alpha-interferon and ribavirin					40
